US5264589A, “Merocyanine protein error indicators” (Miles Inc., priority 1991, dated 1993)
Values belong to the compound of their own block, whether it stands above or below them.

Legend:
human serum albumin = human serum albumin (Homo sapiens, UniProt P02768); experiment: Liquid assay for human serum albumin (increase in absorbance); conditions: albumin 100 mg/dl, 200-250 mM Na+ or K+ citrate buffer
Method: The utility of the merocyanine protein error indicator compounds of the present invention in a liquid assay for the determination of protein levels in a liquid test sample is illustrated in Table 7 below. […] The solution was then treated with sufficient human serum albumin to make the albumin concentration 100 mg/dl and the absorbance was measured again. The reported increase in absorbance (Δ abs) is proportional to the amount of albumin present, and is indicative of the relative sensitivity of the dye for measuring protein.

[1] = pKa of the indicator compound; type: physicochemical
[2] = molecular target: T1, human serum albumin (HSA) (Homo sapiens, UniProt P02768); experiment: Dose response of reagent strips including SPDIB (K/S reflectance, Clinitek 200); conditions: analytical test strips including 0.3 mM SPDIB; 50 mM potassium citrate, pH 2.5; K/S at 25 seconds; FIG. 7
T1 construct: purchased Miles, Inc., Elkhart, Ind; (Pentex)
T1 sequence (P02768 25-609): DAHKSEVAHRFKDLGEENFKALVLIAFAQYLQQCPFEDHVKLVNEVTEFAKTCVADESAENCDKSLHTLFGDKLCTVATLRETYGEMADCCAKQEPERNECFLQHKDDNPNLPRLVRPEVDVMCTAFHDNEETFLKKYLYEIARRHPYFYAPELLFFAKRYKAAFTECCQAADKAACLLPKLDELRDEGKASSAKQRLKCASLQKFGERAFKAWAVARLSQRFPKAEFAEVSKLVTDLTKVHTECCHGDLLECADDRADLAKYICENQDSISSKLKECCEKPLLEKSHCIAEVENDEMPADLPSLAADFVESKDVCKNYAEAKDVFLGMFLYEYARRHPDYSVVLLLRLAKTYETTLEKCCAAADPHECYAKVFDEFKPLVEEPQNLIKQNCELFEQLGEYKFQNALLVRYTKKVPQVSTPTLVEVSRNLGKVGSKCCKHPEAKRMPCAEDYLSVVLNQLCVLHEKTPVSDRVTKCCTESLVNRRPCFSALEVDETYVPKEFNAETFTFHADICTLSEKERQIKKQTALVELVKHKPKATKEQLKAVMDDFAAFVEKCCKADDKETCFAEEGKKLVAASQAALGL
Method: A buffered liquid sample (50 mM potassium citrate, pH 2.5) which was shown by immunoassay to be devoid of albumin, was spiked to various clinically significant levels with Pentex® human serum albumin (HSA) (Miles, Inc., Elkhart, Ind.). Using a Clinitek 200® Instrument (Miles, Inc., Elkhart, Ind.) protein measurements were made using analytical test strips including 0.3 mM SPDIB.
Resolution was quantitatively expressed in delta K/S between albumin levels, as shown FIG. 7. K/S are calculated from the formula: [formula] wherein R is the fraction of reflectance from the test device, K is a constant, and S is the light scattering coefficient of the particular reflecting medium. The above equation is a simplified form of the well-known Kubelka-Munk equation (See Gustav Kortum, "Reflectance Spectroscopy," pp. 106-11, Springer Verlas, New York (1969). K/S was determined at 25 seconds.

Chain of human serum albumin (P02768 25-609): as above

- ΔABS (increase in absorbance) (human serum albumin; compound conc. 1.0 × 10^-5 M, assay pH 3.0, λ 522 nm): 0.156
- COMPD. pKa [1]: 3.59
SMILES: CC1(C)C(C=Cc2cc(Br)c(O)c(Br)c2)=[N+](CCCS(=O)(=O)[O-])c2ccccc21 [Compound A, 1-(ω-sulfopropyl)-2-(4'hydroxy-3',5'-dibromostyryl)-3,3-dimethylindoleninium betaine]

- ΔABS (increase in absorbance) (human serum albumin; compound conc. 2.5 × 10^-5 M, assay pH 3.5, λ 506 nm): 0.027
- COMPD. pKa [1]: 4.35
SMILES: O=S(=O)([O-])CCCC[n+]1c(C=Cc2cc(I)c(O)c(I)c2)sc2ccccc21 [Compound B, 1-(ω-sulfobutyl)-2-(4'-hydroxy-3',5'-diiodostyryl)-benzothiazolium betaine]

Second part, the compound before the results:

SMILES: CC1(C)C(C=Cc2cc(I)c(O)c(I)c2)=[N+](CCS(=O)(=O)[O-])c2ccccc21 [Compound C, 1-(ω-sulfoethyl)-2-(4'-hydroxy-3',5'-diiodostyryl)-3,3-dimethylindoleninium betaine]
- ΔABS (increase in absorbance) (human serum albumin; compound conc. 1.5 × 10^-5 M, assay pH 3.0, λ 543 nm): 0.255
- COMPD. pKa [1]: 3.65

SMILES: CC1(C)C(C=Cc2cc(I)c(O)c(I)c2)=[N+](CCCCS(=O)(=O)[O-])c2ccccc21 [Compound E, 1-(ω-sulfobutyl)-2-(4'-hydroxy-3',5'-diiodostyryl)-3,3-dimethylindoleninium betaine]
- ΔABS (increase in absorbance) (human serum albumin; compound conc. 1.8 × 10^-5 M, assay pH 3.0, λ 535 nm): 0.322
- COMPD. pKa [1]: 3.52

SMILES: CC1(C)C(C=Cc2cc(I)c(O)c(I)c2)=[N+](CCCS(=O)(=O)[O-])c2ccccc21 [Compound D, 1-(ω-sulfopropyl)-2-(4'-hydroxy-3'-5'-diiodostyryl)-3,3-dimethylindoleninium betaine]
- ΔABS (increase in absorbance) (human serum albumin; compound conc. 2.0 × 10^-5 M, assay pH 3.0, λ 541 nm): 0.402
- resolution between protein levels (delta K/S) [2]: significant resolution between protein levels
- response of the strip to different levels of protein [2]: sensitive to a wide range of protein concentrations
- COMPD. pKa [1]: 3.65
